Assay [1] concerns the target AaeR (SSON_3385). The settings on record: AaeR labelled with L014 Monolith protein labeling kit; 60% LED power, 40% MST power.
Assay [2] concerns the target T1, UbiC (SSON_4219) (Shigella sonnei, UniProt Q3YUU5).
T1 construct: intact ubiC gene in pET28a(+), His-tagged fusion, expressed in E. coli BL21(DE3), His-Tag column
The assay is described as follows: in vitro conversion to 4-HBA. Type of assay: biochemical. To be noted: product 4-hydroxybenzoic acid.

What is called Kd is the free concentration of one partner at which half of the binding sites on the other are occupied at equilibrium, for simple one-to-one binding.

T1 sequence (Q3YUU5 whole entry, the tested form may be a part): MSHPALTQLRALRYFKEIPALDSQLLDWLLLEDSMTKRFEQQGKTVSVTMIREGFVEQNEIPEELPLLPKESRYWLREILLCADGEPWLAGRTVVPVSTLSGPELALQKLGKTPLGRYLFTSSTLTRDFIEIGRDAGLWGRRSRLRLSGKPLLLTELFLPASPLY

In the case of `O=C(O)c1ccc(O)cc1` [4-hydroxybenzoic acid], the Kd in assay [1] stood at 23.1 ± 0.76 µM. For `C=C(O[C@@H]1C=C(C(=O)O)C=C[C@H]1O)C(=O)O` [chorismic acid], the “in vitro conversion to 4-HBA” value in assay [2] is given as “UbiC directly catalyzed the conversion of chorismic acid to 4-HBA”.
